Measured values from PubChem BioAssay (NCI).
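Briefly, cells in 96-well plates were exposed to five compound concentrations for 48 h, and endpoints were estimated by linear interpolation. Abbreviation: GI50, concentration required for 50% inhibition of growth. TGI marks complete inhibition of growth.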

Key:
Assay in all cases: NCI-60 cell line screen, 48 h
OVCAR-8 ovarian = tested on: OVCAR-8 ovarian
SK-MEL-28 melanoma = tested on: SK-MEL-28 melanoma
A549 NSCLC = tested on: A549 NSCLC
RPMI-8226 leukemia = tested on: RPMI-8226 leukemia
SF-539 CNS = tested on: SF-539 CNS
SNB-75 CNS = tested on: SNB-75 CNS
TK-10 renal = tested on: TK-10 renal
MCF7 breast = tested on: MCF7 breast
MDA-N = tested on: MDA-N
DU-145 prostate = tested on: DU-145 prostate

Structure (SMILES)	TGI (OVCAR-8 ovarian)	TGI (SK-MEL-28 melanoma)	TGI (A549 NSCLC)	TGI (RPMI-8226 leukemia)	TGI (SF-539 CNS)	TGI (SNB-75 CNS)	TGI (TK-10 renal)	TGI (MCF7 breast)	TGI (MDA-N)	TGI (DU-145 prostate)	GI50 (MCF7 breast)	GI50 (OVCAR-8 ovarian)	GI50 (A549 NSCLC)	GI50 (RPMI-8226 leukemia)	GI50 (SNB-75 CNS)	GI50 (TK-10 renal)	GI50 (DU-145 prostate)
CC(C)C1=CC23CCC4C(C)(C(=O)O)CCCC4(C)C2CC1C1C(=O)N(c2ccccc2)C(=O)C13 (stereo unspecified)	> 100 µM	> 100 µM	> 100 µM	> 100 µM	> 100 µM	> 100 µM	> 100 µM										
O=C1c2cc(Cl)ccc2NC(=NCCCl)C2CSCN12 (stereo unspecified)	> 100 µM	> 100 µM	> 100 µM	> 100 µM			> 100 µM	> 100 µM	> 100 µM	> 100 µM							
CC(C)C(N)=O	> 5000 µM	> 5000 µM	> 5000 µM	> 5000 µM	> 5000 µM	> 5000 µM	> 5000 µM										
CCOP(=O)(OCC)C(N)c1ccc(Cl)cc1 (stereo unspecified)	> 100 µM	> 100 µM	> 100 µM	> 100 µM	> 100 µM		> 100 µM	> 100 µM	> 100 µM	> 100 µM							
CC1=C(C(=O)c2ccccc2)C23C(=O)N(c4ccccc4)C(=O)C2=C(O)C=CC3(O)N1 (stereo unspecified)	98.9 µM	39.2 µM	> 100 µM	> 100 µM	> 100 µM	77.5 µM	> 100 µM	> 100 µM		> 100 µM							
Cc1csc(/N=C\c2c(O)c3ccccc3oc2=O)n1	> 100 µM		> 100 µM		> 100 µM	65.1 µM	77.8 µM	> 100 µM	> 100 µM	> 100 µM							
O=S(=O)(/N=C(\NO)Nc1ccc(Cl)cc1)c1cccc2nsnc12	> 100 µM	46.6 µM	> 100 µM		> 100 µM	> 100 µM	> 100 µM		79 µM	> 100 µM							
N#Cc1c(-c2ccccc2)[nH]c(=O)n(C2OC(CO)C(O)C(O)C2O)c1=O (stereo unspecified)	> 100 µM	> 100 µM	> 100 µM	> 100 µM	> 100 µM	> 100 µM	> 100 µM	> 100 µM		> 100 µM							
NNC(=O)c1nnn(CCc2ccccc2)c1C(=O)NN	> 100 µM	> 100 µM	> 100 µM	> 100 µM			> 100 µM	> 100 µM	> 100 µM	> 100 µM							
Cc1ccc(/C=N/Nc2ccc3ccccc3n2)s1	> 100 µM	55.9 µM	40 µM	86.9 µM	> 100 µM	> 100 µM	> 100 µM	45.1 µM	29.2 µM								
Nc1ccc(C(=O)c2cn(CCN3CCOCC3)c3ccccc23)c2ccccc12	52.7 µM	> 100 µM	> 100 µM	> 100 µM	> 100 µM			> 100 µM	> 100 µM	> 100 µM							
c1csc(C[N+]23CN4CN(CN(C4)C2)C3)c1	74.9 µM	> 100 µM	87 µM	58.7 µM	> 100 µM	> 100 µM	79.5 µM										
Cc1ccc(N(CC(=O)Nc2ccc(S(=O)(=O)N3CCC(N4CCCC4)CC3)cc2)S(=O)(=O)c2ccc(Cl)cc2)cc1	3.76 µM		3.52 µM	5.06 µM		2.73 µM	3.36 µM	3.6 µM		3.4 µM	1.6 µM	1.86 µM	1.78 µM	2.08 µM	1.22 µM	1.68 µM	1.76 µM
CC(=O)NC1=C[C@@H]([C@H]2COC(C)(C)O2)OC1=O	> 100 µM	> 100 µM	> 100 µM	> 100 µM	> 100 µM	> 100 µM		> 100 µM									
O=C1CCCCCCCCCCC1CN1CCCCC1 (stereo unspecified)	> 100 µM	> 100 µM	> 100 µM	> 100 µM		> 100 µM	> 100 µM										
CC(=O)N=C1N(/C=C2\C(=O)Oc3ccccc3C2=O)C(=O)/C(=C/c2ccc(NC(C)=O)cc2)N1C	> 100 µM	> 100 µM	> 100 µM	> 100 µM	> 100 µM	> 100 µM		> 100 µM	> 100 µM	> 100 µM							
NC1=CN2c3ccccc3N(CC(=O)O)C2C=C1 (stereo unspecified)	> 100 µM	> 100 µM	> 100 µM	> 100 µM	> 100 µM	> 100 µM	> 100 µM	> 100 µM		> 100 µM							
CC1C2(C)OC(=N)C(C#N)(C(c3cccc([N+](=O)[O-])c3)O2)C1(C#N)C#N (stereo unspecified)	> 100 µM	47.5 µM	> 100 µM		34.2 µM	> 100 µM	> 100 µM	50.2 µM	32.4 µM	> 100 µM							
